{
  "source": "paper PMC8406319",
  "about": "“The dCache Chemoreceptor TlpA of Helicobacter pylori Binds Multiple Attractant and Antagonistic Ligands via Distinct Sites” (mBio, 2021)",
  "key": {"TlpALBD": {"test_system": "TlpALBD", "test": "Small-molecule ligand binding array", "set-up": "species or system Helicobacter pylori SS1", "settings": "ligand binding array screen; n = 3", "protocol": "Small-molecule arrays were prepared and performed as previously described ([57]). Briefly, 1 μg of purified TlpALBD in phosphate-buffered saline (PBS) (pH 7.2) was incubated with a molar concentration ratio (4:2:1) of anti-His antibody (Cell Signaling), followed by incubation with a secondary antibody (Thermo Scientific) for signal amplification. The protein-antibody mix was added to an Arrayit Superepoxy III glass substrate array blocked with PBS (pH 7.2) with 1% bovine serum albumin. […] Unbound protein was washed away with PBS with 0.05% Tween. […] Three biological replicates were performed, with a total of 12 data points for each glycan tested. Binding was classified as positive for a ligand if the relative fluorescence unit value was >1-fold above the mean background (defined as the average background of negative-control spots plus 3 standard deviations [SD]) and was statistically significant (P < 0.005 by Student’s t test). Small-molecule array slide preparation and analysis were done according to MIRAGE guidelines ([58]) (outlined in Table S5).\nClassification Guidelines\n1. Sample: Glycan Binding Sample\nOrigin: Helico bact er pyl ori SS1; produce d as a reco mbinant His -tagged protein in E.\nThe preparation of TlpA is exp lained in the Materials and Methods se ct ion: TlpA co nst ruct desi gn and protein purifica tion.\nSample Sample is a His Tagged protein co ntaining only the periplasm ic rece ptor domain, amino […]\nPlease see Materials and Methods: Li ga nd bi ndi ng arra y.\nProteins were co mplexe d with mouse anti-his antibody, with se co ndary and tertiary Alexa Fluor555 antibodies (rabbit anti-mouse , goat anti-rabbit) at a molar ratio of 4:2:1.\nThe protein/antibody co mplex was incu bated on ice for 10 mins prior to placi ng on the Assa y array. Arrays were performed with 1 µg of co mplexe d protein incu bated on the array for protoco l 20 min. Arrays were then wash ed 3 times in Array PBS (PBS + 2 mM MgCl2 + 2 mM CaCl2) then dried by ce ntrifugation for 3 min at 300 x g. Sca nning was performed usi ng an Innopsys InnoSca n 1100AL and analyze d usi ng Mapix (Innopsy s). Yes/ no binding was determined by si x posi tive replica te sp ots in three replica te exp eriments. […]\n2.2 Small molecule Library […]\ndescr iption for Compounds printed in the amino aci d/small molecu le array for this st udy are list ed in […]\n5.2 Small molecule array with “Map”\nThe array co nsi sts of triplica te su b-arrays of amino aci ds and sm all moleucl es (24 rows x 10 co lumns) with 400μm sp ot sp aci ng (ce ntre to ce ntre) with a minimum sp ot si ze of 100μm . Each sa mple is printed si x times, with each of the 3 su b-arrays incl uding at least Array layo ut si x negative co ntrol sa mples (print so lution only) and a posi tive co ntrol sa mples […]\nPosi tive co ntrols provi de proof of su cce ssf ul immobiliza tion of the amine reagents and provi des for orientation for analysi s.\nSample Arrays are quality co ntrolled by a range of measu res. 1. Each printed array is post print identifica tion sca nned to co nfirm deposi tion of the sa mples on the array su rface prior to neutraliza tion and quality of the remaining sl ide su rface . 2. Post neutralize d sl ides are sca nned again to monitor co ntrol for remaining autofluoresce nce .\n1. 6. Detector and Data Processing\nSca nning reso lution: […]\nSca n powers: Low lase r power. […]\nanalysi s Innopsys MAPIX."}, "H. pylori PMSS1 ΔtlpA": {"test_system": "H. pylori PMSS1 ΔtlpA", "test": "Temporal chemotaxis assay (direction changes), ΔtlpA mutant", "assay_type": "cell-based, Helicobacter pylori", "settings": "ligands 0.1-10 mM, controls 50 μM dipyridyl, 10 mM HCl", "protocol": "Cultures of H. pylori PMSS1 WT and ΔtlpA strains were grown overnight, back-diluted, and then incubated until an OD600 of 0.12 to 0.15 was reached. Cultures were treated with water (Mock) or various concentrations of compounds, as indicated. For panels C and E, the pH of cysteine, thiamine, malic acid, and α-ketoglutarate stocks was adjusted using NaOH to match the pH of the water used for the untreated control. The cells were immediately filmed, and direction changes were counted over a 3-s swimming period in at least 100 cells per treatment from 3 biological replicates. Data are normalized to the values for the untreated control for each strain, as described in Materials and Methods. Error bars represent the standard errors of the means. *, P < 0.05; **, P < 0.01; ***, P < 0.001 (comparisons to the untreated control per strain using two-way ANOVA with Dunnett’s multiple-comparison test).\nTo determine if chemoattractant responses toward arginine, fumarate, and cysteine were TlpA dependent, the same tracking experiments were repeated with a mutant lacking tlpA (ΔtlpA).\nSwimming behavior assays were done with H. pylori PMSS1 strains grown in BB10 as described above. Cultures grown overnight were diluted to an optical density at 600 nm (OD600) of 0.1 in fresh BB10 and then incubated with shaking as described above until an OD600 of 0.12 to 0.15 was reached. […] The number of direction changes in a bacterial swimming trajectory was enumerated over a 3-s interval to determine whether each putative ligand is sensed as an attractant or repellent or elicits no response ([20], [25][–][30]). […] Each control is sensed by chemoreceptors other than TlpA ([24], [25], [29], [31]). The pH of BB10 upon treatment was independently assessed using a Denver Instruments pH meter. Prior to realizing that chemotactic responses may be due to medium acidification, we resuspended all ligands in pure water. Therefore, to be able to compare the results to those of previous experiments, we continued resuspending acidified ligands in pure water and then adjusting the pH of the resuspended ligand using NaOH. Cultures were filmed immediately after ligand addition at a ×400 magnification using a Hamamatsu C4742-95 digital camera with μManager software (version 1.4.22), mounted on a Nikon Eclipse E600 phase-contrast microscope. For the competition chemotaxis assay, cultures of H. pylori and ligands were prepared as described above. However, 1 min after the addition of a nonchemoactive ligand at a final concentration of 10 mM, a chemoactive ligand was added at a final concentration of 10 mM, and the cultures were then filmed as described above. Videos were relabeled to blind the observer to the strain identity. For each sample, >100 3-s-long bacterial tracks from three independent cultures were analyzed manually to identify stops followed by direction changes. Data for all biological replicates under each condition were combined, and the average number of direction changes in 3 s and the standard error of the mean were calculated. For each strain, data were normalized to the values for the untreated control under each experimental condition. Statistical analysis of the data for treated versus untreated samples was performed using two-way analysis of variance (ANOVA) and Dunnett’s multiple-comparison test."}},
  "note": "Where a name gives a salt, the structure may show the parent alone.",
  "data": [
    {"smiles": "N[C@@H](CS)C(=O)O", "note": "[Cysteine, L-cysteine hydrochloride monohydrate]", "values": [
      {"measurement": "Array result", "setting": "TlpALBD", "result": "+/−"},
      {"measurement": "Chemotactic response of ΔtlpA mutant", "setting": "H. pylori PMSS1 ΔtlpA", "result": "failed to exhibit a chemotactic response"}
    ]},
    {"smiles": "N=C(N)NCCC[C@H](N)C(=O)O", "note": "[Arginine, L-arginine monohydrochloride]", "values": [
      {"measurement": "Array result", "setting": "TlpALBD", "result": "+"},
      {"measurement": "Chemotactic response of ΔtlpA mutant", "setting": "H. pylori PMSS1 ΔtlpA", "result": "failed to exhibit a chemotactic response"}
    ]},
    {"smiles": "O=C(O)C[C@H](O)C(=O)O", "note": "[Malic acid, L-malic acid]", "values": [
      {"measurement": "Array result", "setting": "TlpALBD", "result": "+/−"}
    ]},
    {"smiles": "Cc1ncc(C[n+]2csc(CCO)c2C)c(N)n1", "note": "[Thiamine, thiamine hydrochloride]", "values": [
      {"measurement": "Array result", "setting": "TlpALBD", "result": "+/−"}
    ]},
    {"smiles": "N[C@H]1C(O)O[C@H](CO)[C@@H](O)[C@@H]1O", "note": "(stereo partly drawn) [Glucosamine, D(+)-glucosamine hydrochloride]", "values": [
      {"measurement": "Array result", "setting": "TlpALBD", "result": "+"}
    ]},
    {"smiles": "O=C(O)/C=C/C(=O)O", "note": "[Fumarate, sodium fumarate]", "values": [
      {"measurement": "Array result", "setting": "TlpALBD", "result": "+"},
      {"measurement": "Chemotactic response of ΔtlpA mutant", "setting": "H. pylori PMSS1 ΔtlpA", "result": "failed to exhibit a chemotactic response"}
    ]}
  ]
}
